# Measurements from patent US20240000811A1, “INOSITOL HEXAKISPHOSPHATE ANALOGUES FOR TREATMENT OF CALCIFICATION ASSOCIATED KIDNEY DISEASES” (INOSITEC AG, priority 2020, published 2024).
# Columns and labels:
# [1] = In-solution screening: CaP precipitation and aggregation in artificial renal tubular fluid (RTF); conditions: 9 mM phosphate, 8 mM calcium, 4 h, RT
# Description: An artificial renal tubular fluid (RTF) with a final composition of 0.05 mM oxalate, 0.005 mM sulphate, 408 mM sodium, 424 mM chloride, 0.26 mM potassium, 4 mM magnesium and 0.2 mM citrate in double distilled water was prepared according to a literature report (Fasano, J. M. et al., Kidney Int. 59, 169-178. DOI: 10.1046/j.1523-1755.2001.00477.x, 2001). The solution was filtered with a 0.45-μm syringe filter. Twenty mM Bis-Tris buffer was added to the reported protocol to ensure pH stability throughout experiments and pH was set to 7.2. The artificial RTF was stored at room temperature for up to four months. Stock solutions of 0.25 M phosphate and 1 M calcium were prepared in double distilled water and were stored separately at −20° C.
# Twenty-x final concentration phosphate, 20× final concentration calcium and 10× final concentration compound dilutions were prepared in RTF. Assay mixture consisting of 80% RTF, 10% compound dilution, 5% phosphate dilution and 5% calcium dilution was prepared in Eppendorf tubes as follows. RTF (320 μL) was mixed with 20 μL phosphate dilution (final concentration of 9 mM), 40 μL compound dilution and 20 μL calcium dilution (final concentration of 8 mM). The assay mixture was vortexed after adding each component and 380 μL of the mixture were immediately added to 8-well glass bottom slides and incubated for 4 hat RT. CaP precipitation was assessed using a Leica DM 6000B microscope (Leica Microsystems, Wetzlar, Germany) in brightfield mode. For quantification 3 wells/condition with 3-4 images/well were imaged with a 40× objective. The total area covered with CaP deposits in percentage of the field of view and the mean size of CaP aggregates were determined.
# In a first step, the influence of selected IP6 analogues (FIG. 3) on CaP precipitation and growth was assessed in vitro using artificial renal tubular fluid (RTF) (Table 1). In a previous study, the inventors investigated CaP protein particle formation in serum. However, an important difference to cardiovascular calcification lies in the extremely low protein content of the renal tubular fluid vs. the high abundance of proteins in blood, which can stabilize amorphous particles. Two cut-offs were chosen for assessing efficacy. First, complete inhibition was defined as a >90% reduction of detected CaP precipitates compared to the control sample without compound.
# [2] = test system: RPTEC/TERT 1 human proximal tubule cells; assay: Imaging assay: CaP adhesion/deposition and cellular changes on RPTEC monolayers treated with 5/7 mM Ca/P; format: cell-based; conditions: 7 mM phosphate, 5 mM calcium, 24 h
# Description: RPTEC/TERT 1 human proximal tubule cells (RPTEC) were cultured in T75 tissue culture flasks using ProxUp basal medium mixed with ProxUp supplements at 37° C. and 5% CO2 according to manufacturer's recommendations. Cells were used up to passage 30 and regularly tested for Mycoplasma infections. For experiments, RPTEC were cultured in 24-well plates at a seeding density of 150′000 cells/cm^2. Cell viability assessment and cell counting before seeding was performed using an automated cell counter (BioRad TC 20, Hercules, CA, USA).
# For the comparison of selected IP6 analogues, ProxUp basal medium was prepared with the selected inhibitor and added to each well. Then, CaP precipitation was induced by direct addition of first, phosphate and second, calcium. Final concentrations of 7 mM phosphate and 5 mM calcium were used. Cells were incubated for 24 h at 37° C. and 5% CO2. Spiked medium was removed, and cells were washed twice with PBS before staining.
# For staining, ProxUp basal medium was mixed with calcein (500 nM final concentration), EthD (6 μM final concentration), CellMask stain ([…]) and Hoechst 33342. Staining mixture was added to RPTEC and cells were incubated for 30 min in the dark at 37° C. and 5% CO2. Staining solution was removed, cells were washed with PBS once and ProxUp basal medium was added. Cells were immediately imaged after staining. Images were obtained by epifluorescence microscopy at 37° C., using a Leica CTR6000 microscope. For quantification 3 wells/condition were prepared and 3 images/well were taken. For preliminary adhesion experiments images were taken with a 10× objective, for the imaging assay 20× objective images were taken.
# Multichannel images were saved as individual channel images in 8-bit tiff format. For analysis Hoechst channel images were thresholded using the triangle threshold. Touching nuclei of the binary image were further segmented using the watershed algorithm with the distance transform of the binary image as input and local maxima thereof as seeds.
# For EthD channel images, high level of background noise was observed, potentially as a result of fluorescence of the CellMask stain bleeding through. […] A fixed minimum threshold was set at 60. Watershed segmentation similar to the Hoechst channel was performed to segment touching objects. For the calcein channel images adaptive thresholding by triangle thresholding achieved good detection of CaP deposits, which was validated by visual comparison to brightfield channel images. For compound experiments, an additional upper threshold was set to the minimum threshold of the pos.ctrl images for the respective experiment. Thereby an overly insensitive threshold in images with a high amount of CaP deposition was circumvented. The sum of foreground pixels of the binary image was used to calculate the total area of CaP deposits. The skimage label algorithm was used to label touching foreground regions.
# To segment images to single cells the CellMask channel image was first binarized by adaptive thresholding, using a blocksize of 35, followed by median filtering. Binary erosion was performed to shrink the outlines. A version of watershed algorithm was used to segment the whole image into single cells. To this end, the distance transform of the binary erosion image was used as input image and seeds were set to the local maxima of the Hoechst channel image. While this protocol allowed for an approximation of single cell morphology, further improvements of both analytical and experimental staining procedure would be necessary to achieve more accurate results.
# Additionally, texture features of calcein and CellMask channel images were extracted. Grey level co-occurrence matrices were calculated using one set offset of 5 pixel and an angle of 90°. Here, the use of larger offsets could improve the detection of changes in large-scale features, e.g. CaP clustering sites. […]
Molecule,concentration at which CaP precipitation was promoted [1] [µM],effect on CaP precipitation / crystallization (in words) [1],concentration achieving complete inhibition of CaP adhesion [2] [µM],further results
"O=P(O)(O)OC1[C@@H](OP(=O)(O)O)[C@H](OP(=O)(O)O)C(O)[C@H](OP(=O)(O)O)[C@H]1OP(=O)(O)O (stereo partly drawn) [IP5, myo-inositol pentakisphosphate, reference compound]",30,–,–,–
"O=P(O)(O)O[C@H]1[C@H](OP(=O)(O)O)[C@@H](OP(=O)(O)O)[C@H](OP(=O)(O)O)[C@@H](OP(=O)(O)O)[C@H]1OP(=O)(O)O [IP6, Phytic acid, reference compound]",10,–,–,–
"O=S(=O)(O)OC1C(OS(=O)(=O)O)C(OS(=O)(=O)O)C(OS(=O)(=O)O)C(OS(=O)(=O)O)C1OS(=O)(=O)O (stereo not drawn) [IS6, myo-inositol hexasulfate, reference compound]",–,weak inhibitory properties,–,–
COCCOCCO[C@@H]1[C@@H](OP(=O)(O)O)[C@H](OP(=O)(O)O)[C@@H](OP(=O)(O)O)[C@@H](OP(=O)(O)O)[C@H]1OP(=O)(O)O [OEG2-IP5],–,–,50,concentration for complete inhibition of CaP precipitation (>90% reduction of detected CaP precipitates vs control) [1]: 30 µM; concentration for inhibition of CaP aggregation (>50% reduction of mean size of aggregates vs control) [1]: 1 µM
COCCOCCOCCOCCOCCOCCOCCOCCOCCOCCOCCO[C@@H]1[C@@H](OP(=O)(O)O)[C@H](OP(=O)(O)O)[C@@H](OP(=O)(O)O)[C@@H](OP(=O)(O)O)[C@H]1OP(=O)(O)O [OEG11-IP5],–,–,50,aggregation inhibitory concentration (>50% reduction of mean size of aggregates vs control) [1]: 300 nM
"cyclohexane hexacarboxylic acid [IC6, reference compound]",–,weak inhibitory properties,–,–
